Test results as given in US20090163451A1, “METHODS FOR TREATING VISCERAL PAIN” (priority 2007, published 2009).
Entries after “also recorded” stand apart in the source; their conditions may differ.

Experiments:
[1] = system: rats with experimental pancreatitis (DBTC), referred abdominal hypersensitivity; experiment: experimental pancreatitis model (IV DBTC): referred abdominal hypersensitivity, withdrawals to von Frey filament; format: in vivo, Sprague Dawley rats
Protocol: (§1) Adult male Sprague Dawley rats (Harlan, Indianapolis, Ind.), weighing 150-200 g, were maintained in a climate-controlled room with ad lib food and water on a 12 hour/12 hour light/dark cycle (lights on at 07:00 hours). All procedures followed the policies of the International Association for the Study of Pain and the NIH guidelines for the handling and use of laboratory animals. Studies were approved by the University of Arizona IACUC.
(§2) Dibutyltin dichloride (DBTC) was obtained from Sigma-Aldrich (Milwaukee, Wis.) and dissolved in 100% ethanol to a concentration of 8 mg/kg (Sparmann et al., Gastroenterology. 112:1664-1672 (1997))). Sumatriptan succinate was obtained from Toronto Research Chemicals (ON, Canada) and dissolved in saline to 1, 3, and 10 μg for RVM microinjections and 100, 200, and 300 μg/kg for systemic injections (Kayser et al., Br J Pharmacol. 137:1287-1297 (2002)). The 5HT1B antagonist isamoltane and the 5HT1D antagonist BRL15722 were obtained from Tocris (Elllisville, Mo.). Isamoltane was dissolved in saline to a concentration of 3 μg for RVM microinjection and to a concentration of 4 mg/kg (Ottani et al., Eur J Pharmacol. 497:181-186 (2004)) for system application. BRL15722 was dissolved in 10% DMSO to a concentration of 3 μg for RVM microinjection and to a concentration of 0.3 mg/kg (Ottani et al., Eur J Pharmacol. 497:181-186 (2004)) for systemic application.
For the experiments involving microinjection of drugs into the RVM, rats underwent surgeries to implant RVM cannulae. After five days of recovery, rats received either intravenous injection of DBTC to induce pancreatitis, or intracolonic injection of sodium butyrate to induce colonic hypersensitivity. Animals were monitored for development of visceral hypersensitivity on the subsequent days. On day six after either induction of pancreatitis or colonic hypersensitivity, animals underwent baseline behavioral measurements. […] For experiments investigating the effects of serotonin antagonists, the drugs were microinjected concurrently with injection of sumatriptan and animals were monitored for the subsequent two h. Separate groups of animals were microinjected with the antagonists alone to control for possible effects of the drugs by themselves.
For the experiments involving systemic drug administration, rats received intravenous injection of DBTC to induce pancreatitis or intracolonic injection of sodium butyrate to induce colonic hypersensitivity. On day six after either induction of pancreatitis of colonic hypersensitivity, animals underwent baseline behavioral measurements. […] Separate groups of animals were injected with the antagonists alone. Additionally, separate groups of animals were injected with sumatriptan systemically and microinjected with the antagonists in the RVM to determine if the RVM is a site of action for systemically applied sumatriptan. The microinjection of antagonists into the RVM was done immediately following the systemic injection of sumatriptan. All animals were tested for behavioral signs of hypersensitivity every 20 min for two h after the end of the injections.
Pancreatitis was produced by a tail vein injection of dibutyltin dichloride (DBTC, Aldrich, Milwaukee, Wis., 0.25 cc) dissolved in 100% ethanol at a dose of 8 mg/kg under isofluorane anesthesia (2-3 liters/min, 4.0%/vol until anesthetized, then 2.5%/vol throughout the procedure; Vera-Portocarrero et al., Gastroenterology. 130:2155-2164 (2006)). Control animals were injected with the vehicle solution only (100% ethanol, 0.25 mL).
Referred abdominal hypersensitivity in the pancreatitis model was quantified by measuring the number of withdrawal events evoked by application of a calibrated von Frey filament (determined by either abdominal withdrawal, licking of the abdominal area, or whole body withdrawal). Rats were placed inside Plexiglas boxes on an elevated fine fiberglass screen mesh and acclimated for 30 minutes before testing. […]

[2] = system: rats with experimental colonic hypersensitivity (butyrate), referred lumbar hypersensitivity; experiment: colonic hypersensitivity model (intracolonic sodium butyrate): referred lumbar hypersensitivity, von Frey mechanical threshold; format: in vivo, Sprague Dawley rats; settings: for behavior of rats previously injected with intracolonic vehicle: control rats
Protocol: as §1, §2
For the experiments involving microinjection of drugs into the RVM, rats underwent surgeries to implant RVM cannulae. After five days of recovery, rats received either intravenous injection of DBTC to induce pancreatitis, or intracolonic injection of sodium butyrate to induce colonic hypersensitivity. Animals were monitored for development of visceral hypersensitivity on the subsequent days. On day six after either induction of pancreatitis or colonic hypersensitivity, animals underwent baseline behavioral measurements. Sumatriptan was microinjected into the RVM at different doses (separate groups of rats for each dose) and animals were monitored behaviorally for two h after sumatriptan application in the RVM. For experiments investigating the effects of serotonin antagonists, the drugs were microinjected concurrently with injection of sumatriptan and animals were monitored for the subsequent two h. Separate groups of animals were microinjected with the antagonists alone to control for possible effects of the drugs by themselves.
For the experiments involving systemic drug administration, rats received intravenous injection of DBTC to induce pancreatitis or intracolonic injection of sodium butyrate to induce colonic hypersensitivity. On day six after either induction of pancreatitis of colonic hypersensitivity, animals underwent baseline behavioral measurements. Sumatriptan was injected intraperitoneally at different doses (separate groups of rats for each dose) and the animals were monitored behaviorally every 20 min for two h after injection. For experiments investigating the effects of serotonin antagonists, the drugs were injected intraperitoneally immediately following the injection of sumatriptan (separate groups for each respective antagonist). Separate groups of animals were injected with the antagonists alone. Additionally, separate groups of animals were injected with sumatriptan systemically and microinjected with the antagonists in the RVM to determine if the RVM is a site of action for systemically applied sumatriptan. The microinjection of antagonists into the RVM was done immediately following the systemic injection of sumatriptan. All animals were tested for behavioral signs of hypersensitivity every 20 min for two h after the end of the injections.
Colonic hypersensitivity was induced by enemas of a sodium butyrate solution ([…]) twice daily for 3 days (Bourdu et al., Gastroenterology. 128:1996-2008 (2005)). […]

β-2 adrenergic receptors = β-2 adrenergic receptors (Homo sapiens, UniProt P07550); settings: reported; cited from earlier work
Chain of β-2 adrenergic receptors (P07550 whole entry): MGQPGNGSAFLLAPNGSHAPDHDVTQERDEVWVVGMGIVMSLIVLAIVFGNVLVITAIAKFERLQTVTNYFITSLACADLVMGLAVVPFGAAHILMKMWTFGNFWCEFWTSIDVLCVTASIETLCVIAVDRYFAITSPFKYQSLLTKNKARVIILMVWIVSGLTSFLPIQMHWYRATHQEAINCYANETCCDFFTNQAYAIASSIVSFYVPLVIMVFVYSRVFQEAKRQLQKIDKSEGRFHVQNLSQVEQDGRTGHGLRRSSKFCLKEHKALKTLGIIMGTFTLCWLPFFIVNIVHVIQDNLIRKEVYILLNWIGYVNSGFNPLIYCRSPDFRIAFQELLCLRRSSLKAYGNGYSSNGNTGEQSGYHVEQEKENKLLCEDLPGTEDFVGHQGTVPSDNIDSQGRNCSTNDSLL

[3] = system: rats with experimental colonic hypersensitivity (butyrate), referred lumbar hypersensitivity; experiment: colonic hypersensitivity model (intracolonic sodium butyrate): referred lumbar hypersensitivity, von Frey mechanical threshold; format: in vivo, Sprague Dawley rats; settings: 10 μg IV, up to 120 minutes postinjection, data not shown
[4] = system: thermal hypersensitivity induced by intraplantar injection of carrageenan; settings: injected systemically at similar doses used in the present study (Bingham et al.); cited from earlier work
[5] = system: capsaicin-induced hyperemia in the sciatic nerve; settings: Zochodne and Ho; cited from earlier work
[6] = system: evoked release of calcitonin gene-related peptide from the rat isolated spinal cord; settings: rat isolated spinal cord (Arvieu et al.); cited from earlier work
[7] = system: acetic acid-induced abdominal writhing in mice; settings: mice (Ghelardini et al.; Jain et al.); cited from earlier work
[8] = RVM microinjection, butyrate rats

CC(C)NCC(O)COc1ccccc1-n1cccc1 (stereo not drawn) [isamoltane]
effect of concurrent RVM antagonist on the effect of RVM sumatriptan ([1]; sumatriptan 10 μg RVM, antagonist 3 μg RVM, DBTC rats): blocked the effect of sumatriptan
effect of RVM antagonist on the effect of systemic sumatriptan ([1]; sumatriptan 300 μg/kg IP, antagonist 3 μg RVM, DBTC rats): failed to antagonize the effects of systemic sumatriptan; also recorded: did not modify the effect of systemic sumatriptan
effect of concurrent systemic (IP) antagonist on the effect of systemic sumatriptan ([1]; sumatriptan 300 μg/kg IP, isamoltane 4 mg/kg IP or BRL15722 0.3 mg/kg IP, DBTC rats): reduced the effects of sumatriptan; also recorded: blocked the effects of sumatriptan
effect of concurrent RVM antagonist on the effect of RVM sumatriptan ([2]; sumatriptan 10 μg RVM, antagonist 3 μg RVM, butyrate rats): blocked the effects of sumatriptan; also recorded: blocked the effect of RVM sumatriptan
effect of RVM antagonist on the effect of systemic sumatriptan ([2]; sumatriptan 300 μg/kg IP, antagonist 3 μg RVM, butyrate rats): failed to antagonize the effects of systemic sumatriptan; also recorded: did not modify the effect of systemic sumatriptan
effect of concurrent systemic (IP) antagonist on the effect of systemic sumatriptan ([2]; sumatriptan 300 μg/kg IP, isamoltane 4 mg/kg IP or BRL15722 0.3 mg/kg IP, butyrate rats): reduced the effects of sumatriptan; also recorded: blocked the effect of systemic sumatriptan
activity at β-2 adrenergic receptors (β-2 adrenergic receptors): reported to have activity at β-2 adrenergic receptors

CNS(=O)(=O)Cc1ccc2[nH]cc(CCN(C)C)c2c1 [sumatriptan]
frequency of abdominal withdrawals after IV sumatriptan ([1]; 10 μg IV, DBTC rats, up to 120 minutes postinjection, data not shown): not altered
frequency of withdrawals in DBTC-injected rats ([1]; IP sumatriptan 100, 200, 300 μg/kg, day 6 after DBTC): reduced abdominal withdrawals in pancreatic rats in a dose-dependent manner; also recorded: reduced the frequency of withdrawals in DBTC-injected rats in a time- and dose-dependent manner
responses to abdominal stimulation in vehicle-injected control rats ([1]; IP sumatriptan, rats without pancreatitis): did not alter responses to abdominal stimulation
time for which systemic sumatriptan was active postinjection ([1]; IP, DBTC rats): up to 100 minutes
time of peak effect ([1]; IP, DBTC rats): 40 min
time point at which the effect dissipated ([1]; IP, DBTC rats): 120 min
time to attenuation of withdrawals after administration ([1]; IP, DBTC rats): ≤ 20 min
A50 dose (and 95% confidence interval) for IP sumatriptan ([1]; IP, day 6 after IV DBTC, frequency of abdominal withdrawals, A50 = dose producing a 50% response): 172.4 (124.5-386.7) μg/kg
frequency of withdrawals after RVM administration ([1]; RVM microinjection 1, 3, 10 μg, DBTC rats): reduced the number of withdrawals in a dose-dependent manner; also recorded: attenuated the increased frequency of withdrawals
time by which the effects of RVM sumatriptan dissipated ([1]; RVM microinjection, DBTC rats): ≤ 100 min
time for which the effects of RVM sumatriptan endured ([1]; RVM microinjection, DBTC rats): approximately 60 minutes
time of peak effect ([1]; RVM microinjection, DBTC rats): 40 min
time to attenuation of withdrawals after administration ([1]; RVM microinjection, DBTC rats): ≤ 20 min
responses to abdominal stimulation in vehicle-injected rats ([1]; RVM microinjection, rats without pancreatitis): did not alter responses to abdominal stimulation
A50 dose (and 95% CI) for RVM sumatriptan ([1]; microinjection into the RVM, DBTC rats, frequency of withdrawals): 4.3 (3.1-16.2) μg
frequency of withdrawals, single RVM dose ([1]; sumatriptan 10 μg into the RVM, DBTC rats, v. RVM saline): attenuated the frequency of withdrawals; also recorded: reduced the frequency of withdrawals
frequency of withdrawals, single dose of systemic sumatriptan ([1]; sumatriptan 300 μg/kg IP, DBTC rats, v. saline): attenuated the frequency of withdrawals; also recorded: reduced the frequency of withdrawals
mechanical threshold of rats injected with sodium butyrate ([2]; IP sumatriptan 100, 200, 300 μg/kg): restored tactile thresholds of butyrate-treated rats in a dose dependent manner; also recorded: increased the mechanical threshold of rats injected with sodium butyrate in a time- and dose-dependent manner
behavior of rats previously injected with intracolonic vehicle ([2]; IP sumatriptan): did not modify the behavior
time for which systemic sumatriptan was active postinjection ([2]; IP, butyrate rats): 60 min
time of peak effect ([2]; IP, butyrate rats): 40 min
time point by which the effect dissipated ([2]; IP, butyrate rats): up to 100 minute
time to reversal of reduced mechanical threshold after administration ([2]; IP, butyrate rats): ≤ 20 min
A50 (and 95% CI) dose for IP sumatriptan ([2]; IP, butyrate rats, lumbar mechanical threshold): 232.6 (182.2-322.8) μg/kg
lumbar hypersensitivity / lumbar dermatome mechanical threshold after RVM administration ([2]; RVM microinjection 1, 3, 10 μg, butyrate rats): restored tactile thresholds of butyrate-treated rats in a dose dependent manner; also recorded: time- and dose-dependent attenuation of lumbar hypersensitivity
time by which the effects of RVM sumatriptan dissipated [2, 8]: ≤ 100 min
time for which the effects of RVM sumatriptan endured [2, 8]: approximately 60 minutes
time of peak effect [2, 8]: 40 min
time to reversal of reduced mechanical threshold after administration [2, 8]: ≤ 20 min
behavior of rats previously injected with intracolonic vehicle ([2]; RVM microinjection): did not modify the behavior
A50 (and 95% CI) dose for RVM sumatriptan ([2]; microinjection into the RVM, butyrate rats, lumbar mechanical threshold): 3.2 (2.0-12.5) μg
mechanical threshold, single RVM dose ([2]; sumatriptan 10 μg into the RVM, butyrate rats, v. RVM saline): increased the mechanical threshold
mechanical threshold, single dose of systemic sumatriptan ([2]; sumatriptan 300 μg/kg IP, butyrate rats, v. saline): increased the mechanical threshold
reduced lumbar mechanical threshold after IV sumatriptan [3]: did not reverse the reduction in threshold
thermal hypersensitivity induced by intraplantar carrageenan [4]: attenuated
capsaicin-induced hyperemia in the sciatic nerve [5]: inhibits capsaicin-induced hyperemia
evoked release of calcitonin gene-related peptide [6]: inhibits
antinociceptive efficacy in acetic acid-induced abdominal writhing [7]: has antinociceptive efficacy
